What was measured:
human TLR7 = target: T1, human TLR7 (Homo sapiens, UniProt Q9NYK1); assay: HEK-Blue hTLR7 SEAP reporter gene agonist assay; assay type: cell-based; settings: HEK-Blue hTLR7 cells, 16 to 22 hours incubation
T1 construct: host or cells: HEK-Blue hTLR7 (HEK293-derived reporter cells)
T1 sequence (Q9NYK1 27-1049): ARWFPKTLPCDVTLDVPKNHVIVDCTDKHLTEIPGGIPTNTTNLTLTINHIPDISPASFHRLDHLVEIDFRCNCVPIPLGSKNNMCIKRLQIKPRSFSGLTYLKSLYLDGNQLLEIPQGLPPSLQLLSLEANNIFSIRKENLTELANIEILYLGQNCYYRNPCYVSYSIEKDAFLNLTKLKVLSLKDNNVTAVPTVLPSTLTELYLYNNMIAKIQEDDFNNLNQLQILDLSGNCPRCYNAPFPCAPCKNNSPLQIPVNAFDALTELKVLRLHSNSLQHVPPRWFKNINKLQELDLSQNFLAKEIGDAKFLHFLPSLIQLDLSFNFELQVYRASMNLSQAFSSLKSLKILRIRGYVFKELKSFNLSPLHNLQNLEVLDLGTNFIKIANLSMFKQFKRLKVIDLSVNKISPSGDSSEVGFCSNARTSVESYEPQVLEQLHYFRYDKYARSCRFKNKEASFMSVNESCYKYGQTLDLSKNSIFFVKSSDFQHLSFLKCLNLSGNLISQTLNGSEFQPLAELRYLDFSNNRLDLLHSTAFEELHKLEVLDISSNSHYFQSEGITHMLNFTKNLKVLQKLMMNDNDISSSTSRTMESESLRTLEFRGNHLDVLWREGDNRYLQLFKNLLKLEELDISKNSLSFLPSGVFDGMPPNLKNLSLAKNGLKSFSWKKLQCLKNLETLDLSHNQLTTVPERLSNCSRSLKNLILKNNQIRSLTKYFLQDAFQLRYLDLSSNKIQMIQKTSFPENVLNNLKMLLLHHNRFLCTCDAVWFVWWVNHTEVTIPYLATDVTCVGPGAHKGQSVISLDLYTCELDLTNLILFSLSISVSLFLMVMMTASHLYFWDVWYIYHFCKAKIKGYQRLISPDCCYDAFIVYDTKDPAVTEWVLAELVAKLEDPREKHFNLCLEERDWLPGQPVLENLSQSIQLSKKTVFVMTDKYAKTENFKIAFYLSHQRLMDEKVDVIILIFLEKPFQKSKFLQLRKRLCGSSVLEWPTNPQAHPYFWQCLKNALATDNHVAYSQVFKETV
Description: (§1) HEK-Blue™ cells that stably express human TLR7 or TLR8 are used to evaluate the agonistic activity of the compounds on TLR7 or TLR8, which is determined by the induction of the expression of SEAP reporter gene under the control of minimum IFN-β promoter fusion to 5×NF-κB and AP-1 binding sites. The assay is conducted as below:
(§2) HEK-Blue™ hTLR7 (Invivogen, 80,000 cells per well) or HEK-Blue™ hTLR8 (Invivogen, 60,000 cells per well) were added to the 96-well cell culture plate, followed by adding of the test compound. The final concentration of the test compound in the medium ranged from […], and was incubated for 16 to 22 hours. According to the manufacturer's instructions, the HEK-Blue assay reagent Quanti-blue (Invivogen) was used to measure SEAP levels in cell media. Optical density at 650 nm (OD650) was measured by Neo2 multifunction plate reader (Bio-tek). The half effective concentration (EC50) was calculated using GraphPad Prism.

human TLR8 = target: T2, human TLR8 (Homo sapiens, UniProt Q9NR97); assay: HEK-Blue hTLR8 SEAP reporter gene agonist assay; assay type: cell-based; settings: HEK-Blue hTLR8 cells, 16 to 22 hours incubation
T2 construct: host or cells: HEK-Blue hTLR8 (HEK293-derived reporter cells)
T2 sequence (Q9NR97 27-1041): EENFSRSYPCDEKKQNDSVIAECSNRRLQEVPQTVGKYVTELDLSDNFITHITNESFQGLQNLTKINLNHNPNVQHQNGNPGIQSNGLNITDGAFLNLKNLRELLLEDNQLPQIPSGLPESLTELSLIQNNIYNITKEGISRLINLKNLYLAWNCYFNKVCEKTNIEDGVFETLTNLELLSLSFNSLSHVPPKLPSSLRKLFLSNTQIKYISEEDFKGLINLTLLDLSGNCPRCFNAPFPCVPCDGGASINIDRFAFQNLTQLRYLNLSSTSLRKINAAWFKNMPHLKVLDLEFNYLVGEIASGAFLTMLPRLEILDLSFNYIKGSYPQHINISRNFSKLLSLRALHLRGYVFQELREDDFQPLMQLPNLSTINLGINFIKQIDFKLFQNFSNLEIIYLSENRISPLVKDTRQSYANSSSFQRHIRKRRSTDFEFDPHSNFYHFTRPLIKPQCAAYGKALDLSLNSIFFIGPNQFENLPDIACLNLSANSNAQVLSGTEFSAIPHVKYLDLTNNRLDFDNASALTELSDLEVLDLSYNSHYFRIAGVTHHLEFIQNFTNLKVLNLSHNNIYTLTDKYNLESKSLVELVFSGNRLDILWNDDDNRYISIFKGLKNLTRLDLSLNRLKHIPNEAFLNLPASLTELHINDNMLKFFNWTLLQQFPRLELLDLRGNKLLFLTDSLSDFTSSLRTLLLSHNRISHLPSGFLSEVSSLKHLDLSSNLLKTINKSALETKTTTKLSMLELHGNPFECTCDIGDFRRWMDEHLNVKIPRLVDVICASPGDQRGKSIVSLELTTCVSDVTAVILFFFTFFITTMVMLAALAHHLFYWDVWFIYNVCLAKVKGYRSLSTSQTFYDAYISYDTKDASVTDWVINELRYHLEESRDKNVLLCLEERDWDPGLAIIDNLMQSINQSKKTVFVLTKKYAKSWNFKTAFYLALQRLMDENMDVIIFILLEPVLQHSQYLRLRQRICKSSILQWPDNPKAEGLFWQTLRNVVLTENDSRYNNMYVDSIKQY
Description: as §1, §2

EC50 (human TLR7) [nM]	EC50 (human TLR8) [nM]	Compound
110	40	CCC[C@@H](C)Nc1nc(N)nc2ccn(Cc3ccc(C(=O)N4C5CNCC4C5)cc3)c(=O)c12 [Compound I-161, 6-(4-(3,6-diazabicyclo[3.1.1]heptane-6-carbonyl)benzyl)-2-amino-4-(((R)-pentan-2-yl)amino)pyrido[4,3-d]pyrimidin-5(6H)-one]
203	64	CCCCNc1nc(N)nc2ccn(Cc3ccc(C(=O)N4C5CNCC4C5)cc3)c(=O)c12 [Compound I-65, 6-(4-(3,6-diazabicyclo[3.1.1]heptane-6-carbonyl)benzyl)-2-amino-4-(butylamino)pyri do[4,3-d]pyrimidin-5(6H)-one]
80	110	CCC[C@@H](C)Nc1nc(N)nc2ccn(Cc3ccc(CN4CCCC4)cc3Cl)c(=O)c12 [Compound I-152, (R)-2-amino-6-(2-chloro-4-(pyrrolidin-1-ylmethyl)benzyl)-4-(pentan-2-ylamino)pyrido[4,3-d]pyrimidin-5(6H)-one]
30	7	CCC[C@@H](C)Nc1nc(N)nc2ccn(Cc3ccc(C(=O)N4CC5CC(C4)N5)cc3OC)c(=O)c12 [Compound I-181, 6-(4-(3,6-diazabicyclo[3.1.1]heptane-3-carbonyl)-2-methoxybenzyl)-2-amino-4-(((R)-pentan-2-yl)amino)pyrido[4,3-d]pyrimidin-5(6H)-one]
40	60	CCC[C@@H](C)Nc1nc(N)nc2ccn(Cc3ccc(CN(CCC)CCO)cc3OC)c(=O)c12 [Compound I-165, (R)-2-amino-6-(4-(((2-hydroxyethyl)(propyl)amino)methyl)-2-methoxybenzyl)-4-(pentan-2-ylamino)pyrido[4,3-d]pyrimidin-5(6H)-one]
64	47	CCC[C@@H](C)Nc1nc(N)nc2ccn(Cc3ccc(CN4CCCC4)cc3)c(=O)c12 [Compound I-103, (R)-2-amino-4-(pentan-2-ylamino)-6-(4-(pyrrolidin-1-ylmethyl)benzyl)pyrido[4,3-d]pyrimidin-5(6H)-one]
58	97	CCC[C@@H](CC)Nc1nc(N)nc2ccn(Cc3ccc(CN4CCCC4)cc3)c(=O)c12 [Compound I-138, (R)-2-amino-4-(hexan-3-ylamino)-6-(4-(pyrrolidin-1-ylmethyl)benzyl)pyrido[4,3-d]pyrimidin-5(6H)-one]
100	35	CCC[C@@H](CO)Nc1nc(N)nc2ccn(Cc3ccc(CN4CCN(CCCCCCN)CC4)cc3OC)c(=O)c12 [Compound I-217, (S)-2-amino-6-(4-((4-(6-aminohexyl)piperazin-1-yl)methyl)-2-methoxybenzyl)-4-((1-h hydroxypentan-2-yl)amino)pyrido[4,3-d]pyrimidin-5(6H)-one]
40	30	CCC[C@@H](C)Nc1nc(N)nc2ccn(Cc3ccc(CN4CC5(COC5)C4)cc3)c(=O)c12 [Compound I-150, (R)-6-(4-((2-oxa-6-azaspiro[3.3]heptan-6-yl)methyl)benzyl)-2-amino-4-(pentan-2-ylamino)pyrido[4,3-d]pyrimidin-5(6H)-one]
100	9	CCC[C@@H](C)Nc1nc(N)nc2ccn(Cc3ccc(CN4CCN(CCN)CC4)cc3OC)c(=O)c12 [Compound I-213, (R)-2-amino-6-(4-((4-(2-aminoethyl)piperazin-1-yl)methyl)-2-methoxybenzyl)-4-(pentan-2-ylamino)pyrido[4,3-d]pyrimidin-5(6H)-one]
100	5	CCC[C@@H](C)Nc1nc(N)nc2ccn(Cc3ccc(CNC)cc3OC)c(=O)c12 [Compound I-198, (R)-2-amino-6-(2-methoxy-4-((methylamino)methyl)benzyl)-4-(pentan-2-ylamino)pyrido[4,3-d]pyrimidin-5(6H)-one]
10	4	CCC[C@@H](CO)Nc1nc(N)nc2ccn(Cc3ccc(CN4CCCC4)cc3OC)c(=O)c12 [Compound I-158, (S)-2-amino-4-((1-hydroxypentan-2-yl)amino)-6-(2-methoxy-4-(pyrrolidin-1-ylmethyl)benzyl)pyrido[4,3-d]pyrimidin-5(6H)-one]
84	660	CCCC(CCC)Nc1nc(N)nc2ccn(Cc3ccc(C(=O)N4CCNCC4)cc3OC)c(=O)c12 [Compound I-132, 2-amino-4-(heptan-4-ylamino)-6-(2-methoxy-4-(piperazine-1-carbonyl)benzyl)pyrido[4,3-d]pyrimidin-5(6H)-one]
145	64	CCCCNc1nc(N)nc2cc(C)n(Cc3ccc(CN4CCCC4)cc3)c(=O)c12 [Compound I-187, 2-amino-4-(butylamino)-7-methyl-6-(4-(pyrrolidin-1-ylmethyl)benzyl)pyrido[4,3-d]pyrimidin-5(6H)-one]
30	40	CCC[C@@H](C)Nc1nc(N)nc2ccn(Cc3ccc(CN4CCCC4)cc3OC)c(=O)c12 [Compound I-154, (R)-2-amino-6-(2-methoxy-4-(pyrrolidin-1-ylmethyl)benzyl)-4-(pentan-2-ylamino)pyrido[4,3-d]pyrimidin-5(6H)-one]
83	56	CCCCNc1nc(N)nc2ccn(Cc3ccc(CN4CC5(COC5)C4)cc3)c(=O)c12 [Compound I-52, 6-(4-((2-oxa-6-azaspiro[3.3]heptan-6-yl)methyl)benzyl)-2-amino-4-(butylamino)pyri do[4,3-d]pyrimidin-5(6H)-one]
40	30	CCCC[C@@H](CO)Nc1nc(N)nc2ccn(Cc3ccc(CN4CCCC4)cc3OC)c(=O)c12 [Compound I-164, (S)-2-amino-4-((1-hydroxyhexan-2-yl)amino)-6-(2-methoxy-4-(pyrrolidin-1-ylmethyl)benzyl)pyrido[4,3-d]pyrimidin-5(6H)-one]
46	53	CCCCNc1nc(N)nc2ccn(Cc3ccc(C(=O)N4CCN(CCO)CC4)cc3OC)c(=O)c12 [Compound I-120, 2-amino-4-(butylamino)-6-(4-(4-(2-hydroxyethyl)piperazine-1-carbonyl)-2-methoxybenzyl)pyrido[4,3-d]pyrimidin-5(6H)-one]

— patent US20250059183A1, “PYRIDINE[4,3-D]PYRIMIDINE COMPOUND AS TLR7/8 AGONIST” (SHANGHAI VISONPHARMA CO., LTD., priority 2021, published 2025)
